These results are taken from paper PMC11945486, “TAS1R2/TAS1R3 Single-Nucleotide Polymorphisms Affect Sweet Taste Receptor Activation by Sweeteners: The SWEET Project” (Nutrients, 2025).

The assay addresses T1, human TAS1R2-WT/TAS1R3-L95P (Homo sapiens, UniProt Q7RTX0+Q8TE23, L95P).
T1 construct: expressed in transfected cells; host or cells: HEK293T stably expressing Gα16gust44
T1 sequence (Q8TE23 20-839): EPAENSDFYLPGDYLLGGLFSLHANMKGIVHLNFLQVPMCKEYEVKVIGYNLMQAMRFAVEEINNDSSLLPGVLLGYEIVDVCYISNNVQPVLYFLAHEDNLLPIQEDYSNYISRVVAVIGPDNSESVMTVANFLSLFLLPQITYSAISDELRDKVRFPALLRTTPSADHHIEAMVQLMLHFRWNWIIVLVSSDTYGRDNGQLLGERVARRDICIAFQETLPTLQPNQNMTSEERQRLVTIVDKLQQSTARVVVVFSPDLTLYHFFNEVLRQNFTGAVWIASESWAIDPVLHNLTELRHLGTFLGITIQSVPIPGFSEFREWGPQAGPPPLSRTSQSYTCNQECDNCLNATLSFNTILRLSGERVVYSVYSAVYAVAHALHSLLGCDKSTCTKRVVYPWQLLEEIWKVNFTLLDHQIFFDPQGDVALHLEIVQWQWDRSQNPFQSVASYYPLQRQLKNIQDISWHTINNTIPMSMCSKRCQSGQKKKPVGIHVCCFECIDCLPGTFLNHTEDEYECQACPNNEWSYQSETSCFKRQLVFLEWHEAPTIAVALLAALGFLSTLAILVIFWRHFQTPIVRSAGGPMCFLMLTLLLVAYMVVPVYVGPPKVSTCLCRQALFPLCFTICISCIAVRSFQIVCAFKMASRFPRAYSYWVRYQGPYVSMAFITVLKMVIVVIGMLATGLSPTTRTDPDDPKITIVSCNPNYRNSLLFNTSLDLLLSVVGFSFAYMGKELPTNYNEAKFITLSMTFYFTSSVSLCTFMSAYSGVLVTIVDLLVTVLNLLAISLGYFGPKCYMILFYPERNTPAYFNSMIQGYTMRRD
T1 sequence (Q7RTX0 21-852 L95P): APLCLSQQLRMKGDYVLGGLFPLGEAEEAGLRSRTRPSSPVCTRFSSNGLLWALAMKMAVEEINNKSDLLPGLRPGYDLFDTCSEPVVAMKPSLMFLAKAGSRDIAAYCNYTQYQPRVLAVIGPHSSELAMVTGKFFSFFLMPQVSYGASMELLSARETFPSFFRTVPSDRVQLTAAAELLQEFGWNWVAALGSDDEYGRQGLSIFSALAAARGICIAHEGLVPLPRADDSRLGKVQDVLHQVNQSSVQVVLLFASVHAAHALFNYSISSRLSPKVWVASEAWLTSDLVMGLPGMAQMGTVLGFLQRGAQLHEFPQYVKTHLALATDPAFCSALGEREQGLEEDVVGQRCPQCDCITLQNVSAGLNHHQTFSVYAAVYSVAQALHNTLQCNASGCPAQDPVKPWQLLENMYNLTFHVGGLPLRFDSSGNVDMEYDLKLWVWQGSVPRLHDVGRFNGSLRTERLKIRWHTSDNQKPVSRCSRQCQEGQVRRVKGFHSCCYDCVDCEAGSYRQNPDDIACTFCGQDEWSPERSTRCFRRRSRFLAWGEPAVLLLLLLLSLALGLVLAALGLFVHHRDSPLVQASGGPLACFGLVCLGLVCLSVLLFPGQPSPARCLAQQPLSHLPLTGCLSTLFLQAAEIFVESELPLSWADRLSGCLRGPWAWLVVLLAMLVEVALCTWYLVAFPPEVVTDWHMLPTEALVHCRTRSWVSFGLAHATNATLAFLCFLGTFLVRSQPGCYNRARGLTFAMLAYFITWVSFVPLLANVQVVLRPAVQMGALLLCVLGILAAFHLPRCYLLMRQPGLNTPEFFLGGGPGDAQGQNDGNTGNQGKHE
As to the kind of experiment: Calcium mobilisation assay, TAS1R2-WT with TAS1R3 variant L95P. The format is cell-based. Particulars: for Max ΔF/F0: maximal signal amplitude; for Max ΔF/F0 / EC50: "-": no activation. The source says: The coding sequences for TAS1R2 and TAS1R3 were commercially synthesised, and the human codon was optimised for expression in human cells. The coding sequences of human TAS1R2 and TAS1R3 were subcloned and inserted into the mammalian expression vectors pcDNA6/myc-HisA and pcDNA4/myc-HisA (Invitrogen; Thermo Fisher Scientific; Illkirch, France) between the EcoRI and NotI restriction sites, generating the plasmids pcDNA6-TAS1R2 and pcDNA4-TAS1R3, respectively. To increase protein expression in mammalian cells, an upstream start codon was used, which was a sequence called MAX, corresponding to the QBI SP163 element also described in pcDNA4-HisMax (Invitrogen; Thermo Fisher Scientific; Illkirch, France). To measure the expression level of the receptor by immunohistochemistry, we used the FLAG sequence ([…]) in the C-terminal position, which encodes the FLAG tag epitope. SNP variants of TAS1R2 and TAS1R3 were constructed based on […], respectively, using site-directed mutagenesis (Genewiz; Leipzig, Germany).
The HEK293T cells were kindly provided by Jay P. Slack (Givaudan Flavors Corporation; Cincinnati, OH, USA). HEK293T cells stably transfected with Gα16gust44 [43, 67] were seeded in poly-D-lysine-coated clear-bottom black 96-well plates (0.35 × 10^5 cells/well) in high-glucose DMEM supplemented with 2 mM GlutaMAX, 10% dialysed foetal bovine serum with penicillin/streptomycin and G418 (400 μg/mL) at 37 °C and 6.3% CO2 in a humidified atmosphere as previously reported. […] As a negative control, HEK293T cells were mock-transfected with the empty expression vector. After a further 24 h of incubation, the HEK293T cells were washed with C1 buffer (130 mM NaCl, 5 mM KCl, 10 mM HEPES pH 7.4 and 2 mM CaCl2). The 96-well plates containing the cells were then stimulated with sweet-tasting compounds. […] Different concentration ranges were tested depending on the sweet compound injected. The Ca^2+ changes were expressed as fractional changes in fluorescent light intensity: ΔF/F = (F − F0)/F0, where F was the fluorescent light intensity at each point, and F0 was the value of emitted fluorescent light prior to stimulus application. To calculate dose–response relationships, the changes in fluorescence upon stimulus application were averaged, mock-subtracted and baseline-corrected. The dose–response data obtained were adjusted using a 4-parameter logistic equation. The half-maximal effective concentrations (EC50 values) and maximal signal amplitudes were calculated using SigmaPlot software (version 15.0) (Systat Software; San Jose, CA, USA).
For in vitro calcium mobilisation assay performed on hTAS1R2-SNPs, hTAS1R3-SNPs and mTAS1R3-I60T, 6 to 7 concentrations were tested for each sweet compound, plus buffer alone. All concentration–receptor combinations were measured in duplicate, and each experiment was repeated at least 4 times (8 wells/concentration). Results were expressed for each concentration as ΔF/F mean ± SEM and represented as dose–response curves.
(Calcium assays in cells follow changes in intracellular calcium, usually with a dye or a luminescent sensor.)

As usually defined, the EC50 is the concentration giving half of the maximal effect.

No end group written: not given here.

Turning to `C[C@H](CC[C@@H](O[C@@H]1O[C@H](CO[C@@H]2O[C@H](CO)[C@@H](O)[C@H](O)[C@H]2O)[C@@H](O)[C@H](O)[C@H]1O[C@@H]1O[C@H](CO)[C@@H](O)[C@H](O)[C@H]1O)C(C)(C)O)[C@H]1CC[C@@]2(C)[C@@H]3CC=C4[C@@H](CC[C@H](O[C@@H]5O[C@H](CO[C@@H]6O[C@H](CO)[C@@H](O)[C@H](O)[C@H]6O)[C@@H](O)[C@H](O)[C@H]5O)C4(C)C)[C@]3(C)[C@H](O)C[C@]12C` [Mogroside V, mogroside V], the “R1 = Variant EC50/WT EC50” value is listed as 8.4 and the “Max ΔF/F0” value is given as 0.08.

For the molecule “brazzein (QDKCKKVYENYPVSKCQLANQCNYDCKLDKHARSGECFYDEKRNLQCICDYCEY; ends and bridges not checked; cysteine pairing not given here; UniProt P56552 1-54, looked up) [sweet-tasting protein obtained by recombinant production using the yeast Pichia pastoris]”, the “R1 = Variant EC50/WT EC50” value came out at 19.3 and the “Max ΔF/F0” value worked out at 0.10 ± 0.05.

With `C=C(C)[C@@H]1CC=C(/C=N/O)CC1` [Perillartine, perillartine], the “R1 = Variant EC50/WT EC50” value was determined as 2.5, the concentration giving a half-maximal response (EC50) came to 33.9 ± 2.8 µM and the “Max ΔF/F0” value is reported as 0.14 ± 0.02.

As to thaumatin, the “R1 = Variant EC50/WT EC50” value came to 2.6 and the “Max ΔF/F0” value was found to be 0.89 ± 0.01.

B1: thaumatin (protein)
chain: ATFEIVNRCSYTVWAAASKGDAALDAGGRQLNSGESWTINVEPGTKGGKIWARTDCYFDDSGSGICKTGDCGGLLRCKRFGRPPTTLAEFSLNQYGKDYIDISNIKGFNVPMDFSPTTRGCRGVRCAADIVGQCPAKLKAPGGGCNDACTVFQTSEYCCTTGKCGPTEYSRFFKRLCPDAFSYVLDKPTTVTCPGSSNYRVTFCPTA
modifications: Eight disulfides
notes: sweet-tasting plant protein, E957
Regarding B1, the EC50 was found to be 27.4 ± 5.8 µM.
